Laboratory results reported in the supplement of paper PMC4862054.
“And” between values parts separate entries of the source, which are not always exact repeats. Equal values may be shown once.

The compounds below were run on MDA-MB-436 (assay: drug sensitivity score (DSS), CellTiter-Blue viability (DSS (AUC-based score)); higher = stronger viability inhibition; extreme values may be limits of the assay). Settings: incubation time: 72 h.
Procedure: (§1)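 DSRT with the CellTiter-Blue (resazurin reduction) viability readout, fluorescence 560/590 nm, 72 h incubation. Plates were normalised to DMSO and benzethonium chloride controls. DSS is computed from the area under the fitted dose-response curve (5 or 9 concentrations).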

Compound	drug sensitivity score
N#Cc1ccc(C(c2ccc(C#N)cc2)n2cncn2)cc1 [Letrozole]	0
CCCS(=O)(=O)Nc1ccc(F)c(C(=O)c2c[nH]c3ncc(-c4ccc(Cl)cc4)cc23)c1F [Vemurafenib]	0
O=C(O)C(=O)O.[NH-][C@@H]1CCCC[C@H]1[NH-].[Pt+2] [Oxaliplatin]	2.6
CCN(CC)CCCC(C)Nc1c2ccc(Cl)cc2nc2ccc(OC)cc12 (stereo not drawn) [Mepacrine]	6.69 and 2.28
Cc1ccc(-c2cc(C(F)(F)F)nn2-c2ccc(S(N)(=O)=O)cc2)cc1 [Celecoxib]	3.91
COc1cc2c(Oc3ccc4[nH]c(C)cc4c3F)ncnc2cc1OCCCN1CCCC1 [Cediranib]	0
Nc1nc2[nH]cc(CCc3ccc(C(=O)N[C@@H](CCC(=O)O)C(=O)O)cc3)c2c(=O)[nH]1 [Pemetrexed]	0
C[C@H]1C[C@@H]2[C@H]([C@@H](O)C[C@@]3(C)[C@H]2CC[C@]3(O)C(=O)CO)[C@@]2(C)C=CC(=O)C=C12 [Methylprednisolone]	0
COc1cc([C@@H]2c3cc4c(cc3[C@@H](O[C@@H]3O[C@@H]5CO[C@@H](c6cccs6)O[C@H]5[C@H](O)[C@H]3O)[C@H]3COC(=O)[C@H]23)OCO4)cc(OC)c1O [Teniposide]	10.3

What follows are compounds tested on MDA-MB-453 in the same assay as above. Settings: incubation time: 72 h.
Procedure: as §1

Compound	drug sensitivity score
N#Cc1ccc(C(c2ccc(C#N)cc2)n2cncn2)cc1 [Letrozole]	0
CCCS(=O)(=O)Nc1ccc(F)c(C(=O)c2c[nH]c3ncc(-c4ccc(Cl)cc4)cc23)c1F [Vemurafenib]	0
O=C(O)C(=O)O.[NH-][C@@H]1CCCC[C@H]1[NH-].[Pt+2] [Oxaliplatin]	1.94
CCN(CC)CCCC(C)Nc1c2ccc(Cl)cc2nc2ccc(OC)cc12 (stereo not drawn) [Mepacrine]	6.26 and 3.66
Cc1ccc(-c2cc(C(F)(F)F)nn2-c2ccc(S(N)(=O)=O)cc2)cc1 [Celecoxib]	1.65
COc1cc2c(Oc3ccc4[nH]c(C)cc4c3F)ncnc2cc1OCCCN1CCCC1 [Cediranib]	0
Nc1nc2[nH]cc(CCc3ccc(C(=O)N[C@@H](CCC(=O)O)C(=O)O)cc3)c2c(=O)[nH]1 [Pemetrexed]	0
C[C@H]1C[C@@H]2[C@H]([C@@H](O)C[C@@]3(C)[C@H]2CC[C@]3(O)C(=O)CO)[C@@]2(C)C=CC(=O)C=C12 [Methylprednisolone]	6.93
COc1cc([C@@H]2c3cc4c(cc3[C@@H](O[C@@H]3O[C@@H]5CO[C@@H](c6cccs6)O[C@H]5[C@H](O)[C@H]3O)[C@H]3COC(=O)[C@H]23)OCO4)cc(OC)c1O [Teniposide]	6.23

What follows are compounds tested on SK-BR-3 in the same assay as above. Settings: incubation time: 72 h.
Procedure: as §1

Compound	drug sensitivity score
N#Cc1ccc(C(c2ccc(C#N)cc2)n2cncn2)cc1 [Letrozole]	0
CCCS(=O)(=O)Nc1ccc(F)c(C(=O)c2c[nH]c3ncc(-c4ccc(Cl)cc4)cc23)c1F [Vemurafenib]	0
O=C(O)C(=O)O.[NH-][C@@H]1CCCC[C@H]1[NH-].[Pt+2] [Oxaliplatin]	0.975
CCN(CC)CCCC(C)Nc1c2ccc(Cl)cc2nc2ccc(OC)cc12 (stereo not drawn) [Mepacrine]	5.2 and 2.74
Cc1ccc(-c2cc(C(F)(F)F)nn2-c2ccc(S(N)(=O)=O)cc2)cc1 [Celecoxib]	0
COc1cc2c(Oc3ccc4[nH]c(C)cc4c3F)ncnc2cc1OCCCN1CCCC1 [Cediranib]	0
Nc1nc2[nH]cc(CCc3ccc(C(=O)N[C@@H](CCC(=O)O)C(=O)O)cc3)c2c(=O)[nH]1 [Pemetrexed]	9.22
C[C@H]1C[C@@H]2[C@H]([C@@H](O)C[C@@]3(C)[C@H]2CC[C@]3(O)C(=O)CO)[C@@]2(C)C=CC(=O)C=C12 [Methylprednisolone]	0
COc1cc([C@@H]2c3cc4c(cc3[C@@H](O[C@@H]3O[C@@H]5CO[C@@H](c6cccs6)O[C@H]5[C@H](O)[C@H]3O)[C@H]3COC(=O)[C@H]23)OCO4)cc(OC)c1O [Teniposide]	21.4

What follows are compounds tested on BT-474 (assay: drug sensitivity score (DSS), CellTiter-Glo (DSS (AUC-based score)); higher = stronger drug effect (viability inhibition or cytotoxicity); extreme values may be limits of the assay). Settings: incubation time: 72 h.
Procedure, shortened: (§2)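 Each compound occupied 5 concentrations in 10-fold steps over its own 10,000-fold range in 384-well plates, into which breast cancer cell lines were seeded as 20 µl suspension. Following 72 h of incubation, CellTox Green fluorescence (485/520 nm) was measured, and CellTiter-Glo luminescence was measured after 10 min at room temperature. Plates were individually normalised to 0.1 % DMSO and a positive kill control. From the area under the fitted dose-response curve, a drug sensitivity score was calculated.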

Compound	drug sensitivity score
N#Cc1ccc(C(c2ccc(C#N)cc2)n2cncn2)cc1 [Letrozole]	0
CCCS(=O)(=O)Nc1ccc(F)c(C(=O)c2c[nH]c3ncc(-c4ccc(Cl)cc4)cc23)c1F [Vemurafenib]	0.633
O=C(O)C(=O)O.[NH-][C@@H]1CCCC[C@H]1[NH-].[Pt+2] [Oxaliplatin]	0
CCN(CC)CCCC(C)Nc1c2ccc(Cl)cc2nc2ccc(OC)cc12 (stereo not drawn) [Mepacrine]	0
Cc1ccc(-c2cc(C(F)(F)F)nn2-c2ccc(S(N)(=O)=O)cc2)cc1 [Celecoxib]	0
COc1cc2c(Oc3ccc4[nH]c(C)cc4c3F)ncnc2cc1OCCCN1CCCC1 [Cediranib]	0
Nc1nc2[nH]cc(CCc3ccc(C(=O)N[C@@H](CCC(=O)O)C(=O)O)cc3)c2c(=O)[nH]1 [Pemetrexed]	9.78
C[C@H]1C[C@@H]2[C@H]([C@@H](O)C[C@@]3(C)[C@H]2CC[C@]3(O)C(=O)CO)[C@@]2(C)C=CC(=O)C=C12 [Methylprednisolone]	0
COc1cc([C@@H]2c3cc4c(cc3[C@@H](O[C@@H]3O[C@@H]5CO[C@@H](c6cccs6)O[C@H]5[C@H](O)[C@H]3O)[C@H]3COC(=O)[C@H]23)OCO4)cc(OC)c1O [Teniposide]	11.7

What follows are compounds tested on BT-549 in the same assay as above. Settings: incubation time: 72 h.
Procedure, shortened: as §2

Compound	drug sensitivity score
N#Cc1ccc(C(c2ccc(C#N)cc2)n2cncn2)cc1 [Letrozole]	0
CCCS(=O)(=O)Nc1ccc(F)c(C(=O)c2c[nH]c3ncc(-c4ccc(Cl)cc4)cc23)c1F [Vemurafenib]	0
O=C(O)C(=O)O.[NH-][C@@H]1CCCC[C@H]1[NH-].[Pt+2] [Oxaliplatin]	0
CCN(CC)CCCC(C)Nc1c2ccc(Cl)cc2nc2ccc(OC)cc12 (stereo not drawn) [Mepacrine]	0
Cc1ccc(-c2cc(C(F)(F)F)nn2-c2ccc(S(N)(=O)=O)cc2)cc1 [Celecoxib]	0
COc1cc2c(Oc3ccc4[nH]c(C)cc4c3F)ncnc2cc1OCCCN1CCCC1 [Cediranib]	0
Nc1nc2[nH]cc(CCc3ccc(C(=O)N[C@@H](CCC(=O)O)C(=O)O)cc3)c2c(=O)[nH]1 [Pemetrexed]	0
C[C@H]1C[C@@H]2[C@H]([C@@H](O)C[C@@]3(C)[C@H]2CC[C@]3(O)C(=O)CO)[C@@]2(C)C=CC(=O)C=C12 [Methylprednisolone]	0
COc1cc([C@@H]2c3cc4c(cc3[C@@H](O[C@@H]3O[C@@H]5CO[C@@H](c6cccs6)O[C@H]5[C@H](O)[C@H]3O)[C@H]3COC(=O)[C@H]23)OCO4)cc(OC)c1O [Teniposide]	16.1

These compounds were tested on CAL-51 in the same assay as above. Settings: incubation time: 72 h.
Procedure, shortened: as §2

Compound	drug sensitivity score
N#Cc1ccc(C(c2ccc(C#N)cc2)n2cncn2)cc1 [Letrozole]	0
CCCS(=O)(=O)Nc1ccc(F)c(C(=O)c2c[nH]c3ncc(-c4ccc(Cl)cc4)cc23)c1F [Vemurafenib]	2.75
O=C(O)C(=O)O.[NH-][C@@H]1CCCC[C@H]1[NH-].[Pt+2] [Oxaliplatin]	0
CCN(CC)CCCC(C)Nc1c2ccc(Cl)cc2nc2ccc(OC)cc12 (stereo not drawn) [Mepacrine]	0
Cc1ccc(-c2cc(C(F)(F)F)nn2-c2ccc(S(N)(=O)=O)cc2)cc1 [Celecoxib]	0
COc1cc2c(Oc3ccc4[nH]c(C)cc4c3F)ncnc2cc1OCCCN1CCCC1 [Cediranib]	0
Nc1nc2[nH]cc(CCc3ccc(C(=O)N[C@@H](CCC(=O)O)C(=O)O)cc3)c2c(=O)[nH]1 [Pemetrexed]	13.7
C[C@H]1C[C@@H]2[C@H]([C@@H](O)C[C@@]3(C)[C@H]2CC[C@]3(O)C(=O)CO)[C@@]2(C)C=CC(=O)C=C12 [Methylprednisolone]	0
COc1cc([C@@H]2c3cc4c(cc3[C@@H](O[C@@H]3O[C@@H]5CO[C@@H](c6cccs6)O[C@H]5[C@H](O)[C@H]3O)[C@H]3COC(=O)[C@H]23)OCO4)cc(OC)c1O [Teniposide]	12.1

What follows are compounds tested on HCC1937 in the same assay as above. Settings: incubation time: 72 h.
Procedure, shortened: as §2

Compound	drug sensitivity score
N#Cc1ccc(C(c2ccc(C#N)cc2)n2cncn2)cc1 [Letrozole]	0
CCCS(=O)(=O)Nc1ccc(F)c(C(=O)c2c[nH]c3ncc(-c4ccc(Cl)cc4)cc23)c1F [Vemurafenib]	0
O=C(O)C(=O)O.[NH-][C@@H]1CCCC[C@H]1[NH-].[Pt+2] [Oxaliplatin]	0
CCN(CC)CCCC(C)Nc1c2ccc(Cl)cc2nc2ccc(OC)cc12 (stereo not drawn) [Mepacrine]	0
